The nature of data set [1]: Bio-stability in 25% human serum (T½, degradation pattern by UHPLC and MS). It counts as in vitro ADME. The protocol: The supernatant was analyzed by UHPLC-UV/VIS and the peak-height/peak-area of the original peptide was determined at each time point. T½ of the original peptide was estimated by plotting Ln (peak-area) as a function of time. […] Therefore, the degradation pattern of each peptide was additionally studied. Extra peaks compared to the peak of the original peptide in the chromatogram were notified as potential degradation products. To assess the degradation pattern of each peptide and identify degradation products, the test samples were also investigated by mass spectroscopy (MS). Some peptides, for example, may be prone to cleavage by endopeptidases resulting in short peptide fragments unfit for binding to the HLA binding site, whereas other peptides may be more prone to cleavage by exopeptidases which may cleave one or more amino acid residues from the N or C-terminal end of the peptide resulting in a conserved HLA binding. […] Therefore, it is important to look at both the MS data and functional data to estimate the extent and effect of the degradation.

In data set [2] the test system is grass pollen allergic donor derived T cell lines. Description: Dose response titration in T cell proliferation assay. It counts as cell-based, human. The following applies: single peptides, FIG. 21.
Protocol: The dose-response relationship was tested by measuring the percentage of donor response (i.e. the percentage of donor coverage) in concentrations of 2.0, 0.1, 0.005 and 0.00025 μg/ml for the peptide combinations and in concentrations of 2.0, 0.2, 0.02 and 0.002 μg/ml for single peptides. The donor response was determined using T cell proliferation data as described in Example 3.
Relative magnitude value for a peptide or a peptide combination was calculated as percentage of highest T cell response to an allergen or a mix, by the same donor. In this way, allergen or peptide combination with highest magnitude of T cell response gets a value of 100 and T cell response magnitude of remaining peptides/peptide combinations are normalized or calculated relative to 100, for example Relative magnitude=100*(T cell response magnitude of peptide or combination/Highest T cell response in a donor). Relative magnitude were calculated mainly on Phl p 1. For donors non reactive to Phl p 1, Phl p 5 was used as reference
The donors were selected by seeking to maximize the HLA class II diversity in the donor cohort.
For peptide combinations, two set-ups were used:
A) Concentrations of 2.0, 0.1, 0.005 and 0.00025 μg/ml were tested on a set of T cell lines derived from 9 grass pollen allergic donors (same experiment as the data shown in FIG. 7b.).
B) Concentrations of 2.0, 0.066, 0.0022 and 0.00007 μg/ml were used on a set of T cell lines derived from 18 grass pollen allergic donors (same set as the donors used for testing of single peptides as described above).
Relative magnitude value for a peptide or a peptide combination was calculated as percentage of highest T cell response to an allergen or a mix, by the same donor. In this way, allergen or peptide combination with highest magnitude of T cell response gets a value of 100 and T cell response magnitude of remaining peptides/peptide combinations are normalized or calculated relative to 100, for example Relative magnitude=100*(T cell response magnitude of peptide or combination/Highest T cell response in a donor). […]

Where no end group is shown, it is not given here.

As usually defined, the half-life is how long it takes for the measured level to halve. A high value points to slow decline. On to AYESYKFIPALEAAVKQAYA-OH [peptide 285], for which, in data set [1] (degradation details at 60 min), the “<−3aa (%)” value is 0%, the “Sum full length or −1aa to −3aa” value amounted to 100% and the “−1aa to −3aa (%)” value stood at 34%. For the same substance, in data set [1] (male, 37° C.), the half-life stood at 1.37 h. For the same substance, in data set [1] (male, degradation details at 60 min, read-out: Full length (%)), the remaining at 1 h was 66%.
With STGGAYESYKFIPALEAAVK-OH [compound 71], in data set [2], the “average relative magnitude calculated over all donors” value is on record as “high”.

(Values after patent US20180207228A1, “PEPTIDE COMBINATIONS AND USES THEREOF FOR TREATING GRASS ALLERGY” (ALK-Abelló A/S, priority 2015, published 2018).)
